2 compounds from PMC9267128, “New 2-[(4-Amino-6-N-substituted-1,3,5-triazin-2-yl)methylthio]-N-(imidazolidin-2-ylidene)-4-chloro-5-methylbenzenesulfonamide Derivatives, Design, Synthesis and Anticancer Evaluation” (International Journal of Molecular Sciences, 2022) can be followed below.

One assay deals with MCF-7 (breast cancer). Kind of assay: MTT cell viability assay, MCF-7. The conditions noted are these: for IC50: Homo sapiens, MCF7, 72 h, MTT assay, 72 h of incubation; for Selectivity Index (SI) MCF-7: IC50 value toward HaCaT cells/IC50 value toward MCF-7. In kind it is cell-based, human. A digest of the protocol:
(§1)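 Cells in DMEM with 10% FBS, 3 × 10^3 per well, exposed to compounds at 1–100 µM for 72 h at 37 °C. MTT at 0.5 mg/mL for 2 h, formazan dissolved in DMSO and read at 550 nm. Mean ± SD of at least three independent experiments, each in triplicate.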
In general terms: Tetrazolium assays rely on reduction of a dye to a coloured formazan, in cell work by metabolically active cells.

The test system of assay [1] is T47D (breast cancer cell line). As to the kind of experiment: MTT assay, mutant p53 breast cancer cells T47D. In kind it is cell-based. The conditions noted are these: Homo sapiens, T47D, 72 h of incubation. On the procedure: (§2) Thus, the ability of the selected compounds to exert cytotoxic activity toward cell lines harboring mutant p53 was examined. Compounds displaying a high selectivity index (Table 6) were selected for the analysis of their activity toward ovarian and breast cancer cells with wild-type p53 (A2780, MCF-7) and mutant p53 (SKOV-3, T47D).
(§3) Cell viability was examined using the MTT [3-(4,5-dimethylthiazol-2-yl)-2,5-diphenyltetrazolium bromide] assay. Cells were seeded in 96-well plates at a density of 3 × 10^3 cells/well and treated for 72 h with the tested compounds in the concentration range of 1–100 µM. Then, MTT (0.5 mg/mL) was added to the medium and cells were further incubated for 2 h at 37 °C. In the next stage, cells were lysed with DMSO and the absorbance of the formazan solution was measured at 550 nm with a plate reader (1420 multilabel counter, Victor, Jügesheim, Germany). The experiment was performed in triplicate. Values are expressed as the mean ± SD of at least three independent experiments. Cisplatin was used as a positive control.
(§4) Compounds 48, 62, 134, 138 and 140 were further examined toward MCF7 (breast cancer cell line, ATCC, HTB-22), T47D (breast cancer cell line, DSMZ ACC 739), A2780 (ovarian carcinoma cell line, ECACC, 93112519), and SKOV3 (ovarian carcinoma cell line, ATCC, HTB-77) cells. Cells were grown in Dulbecco’s Modified Eagle Medium (DMEM) supplemented with 10% fetal bovine serum (Thermo Fisher Scientific).

Assay [2] relates to MCF7 (breast cancer cell line, ATCC, HTB-22). Kind of assay: MTT assay, wild-type p53 breast cancer cells MCF-7 (Table 11). In kind it is cell-based, human. The conditions noted are these: Homo sapiens, MCF7; 72 h of incubation, wild-type p53, second determination. On the procedure: as §2, §3, §4
The next assay concerns T47D cells. Kind of assay: Apoptosis analysis (Annexin V-PE/7-AAD flow cytometry) in T47D cells. Conditions: T47D (mutant p53), 5, 10 and 25 µM, 72 h. In kind it is cell-based. As for the experimental part: Since the examined compounds exerted cytotoxic activity toward cell lines harboring mutant p53, the ability of compounds 140 and 48 to induce apoptosis in T47D cells with mutant p53 was examined. […] Cell death was induced to a similar extent in cells harboring wild-type and mutant p53 (Figure 10).
(§5) Levels of apoptosis were measured by flow cytometry using the Annexin V-PE Apoptosis Detection Kit I (BD Biosciences, Belgium) according to the manufacturer’s instructions. Apoptosis was assessed after a 72 h treatment of MCF7 and T47D cells with compounds 48 and 140 in the concentrations of 5, 10 and 25 µM. Proceeding cell treatment, cells were collected, washed with PBS and stained with Annexin V-phycoerythrin (PE) and 7-amino-actinomycin (7-AAD) in Annexin V binding buffer for 15 min at RT in the dark. After staining, cells were diluted in Annexin V binding buffer and analyzed on a BD FACSCalibur flow cytometer (BD Biosciences). At total of 10^4 cells were analyzed from each sample and data were analyzed with Flowing software (version 2.5).
(In general: A flow cytometer gives signals particle by particle.)

In the next assay the test system is MCF-7 cells. Kind of assay: Apoptosis analysis (Annexin V-PE/7-AAD flow cytometry) in MCF-7 cells. In kind it is cell-based, human. The conditions noted are these: MCF-7, 5, 10 and 25 µM, 72 h. On the procedure: To confirm this, MCF-7 cells were treated with a concentration range of compounds 140 and 48 for 72 h. Flow cytometric analysis was performed with Annexin V-PE staining. […] The increase in apoptotic cells was mainly evident in the late apoptotic stage (upper right quadrant) (Figure 9).
as §5

Assay [3] relates to A2780 (ovarian carcinoma cell line). As to the kind of experiment: MTT assay, wild-type p53 ovarian cancer cells A2780. It counts as cell-based. The conditions noted are these: Homo sapiens, A2780, 72 h of incubation. On the procedure: as §2, §3, §4
Another assay deals with HeLa (cervical cancer). As to the kind of experiment: MTT cell viability assay, HeLa. In kind it is cell-based, human. Conditions: for IC50: Homo sapiens, HeLa, MTT assay, 72 h of incubation; for Selectivity Index (SI) HeLa: IC50 value toward HaCaT cells/IC50 value toward HeLa. Put shortly:
(§6)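 HCT-116 and HeLa cells in DMEM/10% FBS exposed 72 h to compounds over 1–100 µM. Viability by MTT (0.5 mg/mL, 2 h, 37 °C), formazan dissolved in DMSO and read at 550 nm; mean ± SD of at least three independent experiments.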

The test system of another assay is HCT-116 (colon cancer). As to the kind of experiment: MTT cell viability assay, HCT-116. In kind it is cell-based, human. Conditions: for IC50: MTT assay, 72 h of incubation; for Selectivity Index (SI) HCT-116: IC50 value toward HaCaT cells/IC50 value toward HCT-116. A digest of the protocol: as §6
The test system of assay [4] is SKOV3 (ovarian carcinoma cell line). As to the kind of experiment: MTT assay, mutant p53 ovarian cancer cells SKOV-3. It counts as cell-based. Conditions: Homo sapiens, SK-OV-3, 72 h of incubation. As for the experimental part:
as §2, §3, §4

Assay [5] has as its system HaCaT (human keratinocyte cell line). Kind of assay: MTT cell viability assay, non-cancerous HaCaT. Conditions: Homo sapiens, HaCaT, 72 h, 72 h of incubation, non-cancerous keratinocytes. In kind it is cell-based. Put shortly:
as §1

Structures are written as SMILES.

As usually defined, the IC50 is the concentration that inhibits the measured activity by half. The low end stands for greater potency in that assay, the high end for weaker potency in that assay. On to `Cc1cc(S(=O)(=O)N=C2NCCN2Cc2ccccc2)c(SCc2nc(N)nc(N3CCc4ccccc43)n2)cc1Cl` [Compound 48], for which the IC50 was determined as 7 ± 0.2 µM in the assay on MCF-7 (breast cancer); 4.8 ± 0.1 µM in [1]; 7.8 ± 0.1 µM in assay [2]; 4 ± 0.1 µM in assay [3]; 25 ± 0.3 µM with HeLa (cervical cancer); 6 ± 0.1 µM with HCT-116 (colon cancer) (Homo sapiens, HCT-116, 72 h). Moreover, the IC50 in assay [4] was 8.1 ± 0.1 µM; in assay [5], 33 ± 1 µM. For the same compound, in the assay on MCF-7 (breast cancer), the “Selectivity Index (SI) MCF-7” value turned out to be 4.7. Also, the “apoptotic cells (Annexin V-PE)” value with T47D cells is “concentration-dependent increase”. In addition, the “apoptotic population of cells (Annexin V-PE)” value in the assay with MCF-7 cells was “concentration-dependent increase”. Besides, the “Selectivity Index (SI) HeLa” value in the assay on HeLa (cervical cancer) was found to be 1.3. In addition, the “Selectivity Index (SI) HCT-116” value in the assay with HCT-116 (colon cancer) turned out to be 5.5.
Consider `Cc1cc(S(=O)(=O)N=C2NCCN2Cc2ccc(C(F)(F)F)cc2)c(SCc2nc(N)nc(N3CCN(Cc4ccccc4)CC3)n2)cc1Cl` [Compound 140], for which the IC50 was 10 ± 0.2 µM in the assay with MCF-7 (breast cancer); 5.3 ± 0.1 µM in assay [1]; 6.9 ± 0.1 µM in assay [2]; 4.5 ± 0.1 µM in assay [3]; 8 ± 0.5 µM in the assay with HeLa (cervical cancer); less than 6 µM in the assay on HCT-116 (colon cancer) (Homo sapiens, HCT-116, 72 h). Besides, the IC50 in the assay on HCT-116 (colon cancer) stood at 5 ± 0.2 µM; in [4] it was 6.6 ± 0.1 µM; in [5] it was 22 ± 1 µM. The “Selectivity Index (SI) MCF-7” value in the assay with MCF-7 (breast cancer) worked out at 2.2. Besides, the “apoptotic cells (Annexin V-PE)” value with T47D cells is “concentration-dependent increase”. For the same compound, the “apoptotic population of cells (Annexin V-PE)” value in the assay with MCF-7 cells is given as “concentration-dependent increase”. Further, in the assay with HeLa (cervical cancer), the “Selectivity Index (SI) HeLa” value is 2.7. Besides, the “Selectivity Index (SI) HCT-116” value in the assay with HCT-116 (colon cancer) is given as 4.4.
